Laboratory results reported in patent US9714424B1, “RNAi inhibition of USP10 to treat ocular disorders” (ICAHN SCHOOL OF MEDICINE AT MOUNT SINAI, priority 2014, dated 2017).

Assays:
[1] = system: αv integrins αvβ1, β3, β5; assay: TGFβ activity assay, htert-SMAD reporter cells co-cultured with htert-USP10 cells, αv integrin blocking; assay type: cell-based, human; conditions: 100 nM, compared to control small molecule CWHM96
Protocol: TGFβ activity was measured using cell lines constitutively expressing pGreenFire Lenti-Reporter (System Biosciences) a reporter for SMAD activation. This reporter was used to generate TGFβ reporter cell lines with htert fibroblasts (htert-SMAD) and 293t cells (293t-SMAD). To assess TGFβ activity with USP10 overexpression, 50K Htert-SMAD cells were co-cultured with 50K cells constitutively overexpressing USP10 (htert-USP10) or control cells (htert cells expressing empty vector, htert-vector cells). After 24 hours, cells were removed with trypsin, pelleted, re-suspended in luciferase reagent, placed in wells in triplicate, and assayed for luciferase expression. To assess TGFβ activity when USP10 was silenced, USP10 and control siRNA were transiently transfected in 293t-SMAD cells and assayed as above. To assess TGFβ activity when av integrins were blocked, USP10 cells were treated with intergrin αv blocking small molecule or matched control small molecule and assayed as above.
It was previously reported that integrin αvβ5 directly activates TGFβ in myofibroblasts. […] First we confirmed that the htert-HCF line had low (undetectable) endogenous TGFβ activity so that the induction of TGFβ activity by USP10 could be quantified (data not shown). […] The next day, cells were lysed and luciferase substrate (Brightglo) was added prior to quantification of luciferase activity in each sample. […]

USP10 expression = assay: USP10 protein expression in HCFs treated with TGFβ or TGFβ inhibitor; assay type: cell-based, human
Description: Porcine corneas with scleral rims were mounted on an agarose/collagen base without wounding (control corneas) or after wounding through the anterior stroma with a trephine (wounded corneas). A-H immunostaining of paraffin embedded corneal slices comparing control to 2 weeks post-wounding. Compared to control fibrotic markers increased in the anterior stroma after wounding: (A, B) α-SMA 2.9-fold+/−0.8 ***p<0.005, (C) No primary antibody control, (D, E) USP10 2.5-fold+/−0.8 **p<0.01, and F) Pre-incubation with a USP10 blocking peptide reduced immunostaining. Bar=50 um. (G) Western blot of human and porcine primary epithelial cells (Epi) and stromal cells (Fibro).
Since TGFβ plays an important role in all wounding and fibrotic disease, we tested if TGFβ induced the expression of USP10. In the remaining cell culture studies unless otherwise noted, fibroblasts that have been passaged in serum-containing media are detached and plated on type I collagen in supplemented-serum free media (SSFM). In FIG. 4H, primary human corneal fibroblasts (HCFs) were treated with 1 ng/ml TGFβ for 2 days. TGFβ increased USP10 expression by 57% as compared to no treatment.

Q: With `CC(C)(C)c1cc(Br)cc([C@H](CC(=O)O)NC(=O)CNC(=O)c2cc(O)cc(NC3=NCC(O)CN3)c2)c1` (stereo partly drawn) [CWHM12] as the compound, how does the “USP10-mediated TGFβ activity, reduction” value [1] read?
A: 63%+/−6%

Q: For `NC(=O)c1ccc(-c2nc(-c3ccc4c(c3)OCO4)c(-c3ccccn3)[nH]2)cc1` [SB431542], which “USP10 expression, decrease” value (USP10 expression; blocking TGFβ-induced SMAD2/3 signaling) is on record?
A: 44%

Q: “TGFβ: fibrotic growth factor, added at 1 ng/ml to HCFs” was tested. Which “USP10 expression, increase” value (USP10 expression; 1 ng/ml for 2 days, compared to no treatment) did it give?
A: 57%
